LC retention time data for 34 compounds are collected here from the RepoRT retention time repository.

The nature of this data set: HILIC, Waters Atlantis Premier BEH Z-HILIC, 100 × 2.1 mm, 1.7 µm, 40 °C, 0.17 mL/min, estimated dead time 1.3 min; A: water + 20 mM ammonium carbonate + 5 µM medronic acid; B: 10% water + 90% acetonitrile + 2 mM ammonium carbonate + 0.5 µM medronic acid; gradient (min/%B) 0/100 18/60 18.1/20 21.5/20 22/100 23.5/100 25.5/100. As to conditions: stereoisomer not certain.
With `CC(=O)NC1C(OP(=O)(O)OP(=O)(O)OCC2OC(n3ccc(=O)[nH]c3=O)C(O)C2O)OC(CO)C(O)C1O` (centres undefined) [UDP-GlcNAc], the LC retention time is 9.68 min.

As to `NC(=O)C1=CN(C2OC(COP(=O)(O)OP(=O)(O)OCC3OC(n4cnc5c(N)ncnc54)C(O)C3O)C(O)C2O)C=CC1` (centres undefined) [NADH], the LC retention time is 8.45 min.

As for `O=C(O)CC(O)(CC(=O)O)C(=O)O` [Citric acid], the LC retention time was 13.9 min.

For `Nc1ncnc2c1ncn2C1OC(COP(=O)(O)OP(=O)(O)O)C(O)C1O` (centres undefined) [ADP], the LC retention time was 11 min.

For the compound `O=P(O)(O)OCC1OC(O)(COP(=O)(O)O)C(O)C1O` (centres undefined) [Fructose-1,6-bisphosphate], the LC retention time was 15.2 min.

`NC(=O)CCC(N)C(=O)O` (centres undefined) [Glutamine]: the LC retention time is 10.4 min.

Consider `O=C(O)CCC(=O)C(=O)O` [2-Oxoglutaric acid], for which the LC retention time is 9.07 min.

`NC(=O)c1ccc[n+](C2OC(COP(=O)(O)OP(=O)(O)OCC3OC(n4cnc5c(N)ncnc54)C(O)C3O)C(O)C2O)c1` (centres undefined) [NAD]: the LC retention time is 10.7 min.

Take `NC(=O)c1ccc[n+](C2OC(COP(=O)(O)OP(=O)(O)OCC3OC(n4cnc5c(N)ncnc54)C(OP(=O)(O)O)C3O)C(O)C2O)c1` (centres undefined) [NADP]: the LC retention time was 13.4 min.

Consider `Nc1ncnc2c1ncn2C1OC(COP(=O)(O)OP(=O)(O)OP(=O)(O)O)C(O)C1O` (centres undefined) [ATP], for which the LC retention time is 13 min.

Take `O=P(O)(O)OCC(O)CO` (centres undefined) [Glycerol-3-phosphate]: the LC retention time is 9.75 min.

For `CC(O)C(=O)O` (centres undefined) [Lactic Acid], the LC retention time is 2.96 min.

Take `O=P(O)(O)OCC1OC(O)C(O)C(O)C1O` (centres undefined) [Glucose-6-phosphate]: the LC retention time is 12.4 min.

For `O=C1CC(C(=O)O)NC(=O)N1` (centres undefined) [dihydroorotic acid], the LC retention time is 4.87 min.

For the compound `CC(C)(COP(=O)(O)OP(=O)(O)OCC1OC(n2cnc3c(N)ncnc32)C(O)C1OP(=O)(O)O)C(O)C(=O)NCCC(=O)NCCS` (centres undefined) [CoenzymeA], the LC retention time is 11.9 min.

As for `Nc1ncnc2c1ncn2C1OC(COP(=O)(O)O)C(O)C1O` (centres undefined) [AMP], the LC retention time was 8.86 min.

As to `O=C(CO)C(O)C(O)C(O)COP(=O)(O)O` (centres undefined) [Fructose 6-phosphate], the LC retention time is 10.9 min.

Turning to `C[N+](C)(C)CC(O)CC(=O)[O-]` (centres undefined) [Carnitine], the LC retention time was 9.73 min.

Regarding `O=C(O)CCC(O)C(=O)O` (centres undefined) [2-hydroxy glutaric acid], the LC retention time is 9.81 min.

Regarding `CC(C)CC(N)C(=O)O` (centres undefined) [Leucine], the LC retention time is 5.72 min.

For `O=C(O)C(CO)OP(=O)(O)O` (centres undefined) [Phosphoglyceric acid A], the LC retention time was 12.2 min.

On to `CC(=O)SCCNC(=O)CCNC(=O)C(O)C(C)(C)COP(=O)(O)OP(=O)(O)OCC1OC(n2cnc3c(N)ncnc32)C(O)C1OP(=O)(O)O` (centres undefined) [Acetyl-CoA], for which the LC retention time was 10.5 min.

As for `CCC(=O)OC(CC(=O)[O-])C[N+](C)(C)C` (centres undefined) [carnitine-C3], the LC retention time was 6.63 min.

With `O=C(O)CC(C(=O)O)C(O)C(=O)O` (centres undefined) [Isocitric acid], the LC retention time was 14.5 min.

For `Nc1nc2c(ncn2C2OC(COP(=O)(O)OP(=O)(O)OP(=O)(O)O)C(O)C2O)c(=O)[nH]1` (centres undefined) [GTP], the LC retention time is 15.3 min.

On to `O=C(O)CCC(=O)O` [Succinic Acid], for which the LC retention time was 9.16 min.

For `O=C(O)CCCCC1SCC2NC(=O)NC21` (centres undefined) [Biotin], the LC retention time is 4.19 min.

Turning to `C=C(OP(=O)(O)O)C(=O)O` [PEP], the LC retention time was 13.8 min.

In the case of `OCC1OC(O)C(O)C(O)C1O` (centres undefined) [Hexose], the LC retention time was 7.55 min.

`CCC(C)C(N)C(=O)O` (centres undefined) [Isoleucine]: the LC retention time was 5.97 min.

In the case of `O=C(CO)COP(=O)(O)O` [Triose phosphate], the LC retention time is 9.76 min.

Consider `NC(CCC(=O)O)C(=O)O` (centres undefined) [Glutamic acid], for which the LC retention time is 9.15 min.

As to `Nc1ncnc2c1ncn2C1OC(CO)C(O)C1O` (centres undefined) [Adenosine], the LC retention time was 4.21 min.

With `Cc1cc2nc3c(=O)[nH]c(=O)nc-3n(CC(O)C(O)C(O)COP(=O)(O)OP(=O)(O)OCC3OC(n4cnc5c(N)ncnc54)C(O)C3O)c2cc1C` (centres undefined) [FAD], the LC retention time was 7.12 min.
